In general, inhibition refers to the percentage by which the read-out fell short of the control. As a reminder, the pIC50 is the negative decadic logarithm of the IC50, by convention in mol/L. The low end stands for a large IC50, the high end for a small IC50.

Our source for the inhibition and IC50 values is patent US20110230472A1, “RING-FUSED AZOLE DERIVATIVE HAVING PI3K-INHIBITING ACTIVITY” (Shionogi & Co., Ltd., priority 2008, published 2011).

The target in assay [1] is PI-3 kinase γ (Homo sapiens, UniProt P48736). The experiment in a line: PI3Kγ inhibitory activity, PI3-kinase HTRF assay (inhibition ratio). It counts as biochemical. The following applies: 0.5 h; for inhibition at 50 µM: compound at 50 μM. The method, boiled down: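 PI3Kγ preincubated 10 min with compound and PIP2 substrate (MgCl2, DTT), then ATP added for 30 min at room temperature. PIP3 detected by HTRF (665/620 nm ratio) after 18 h. Inhibition ratio at 50 or 10 μmol/L, normalised to no-compound and no-enzyme controls.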
On the technique in general: In TR-FRET formats the signal depends on donor and acceptor labels being close together.

Assay [2] concerns the target T1, CYP1A2 (Homo sapiens, UniProt P05177).
T1 construct: enzyme: pooled human liver microsome 0.2 mg protein/mL; from tissue; host or cells: pooled human liver microsome
T1 sequence (P05177 1-516): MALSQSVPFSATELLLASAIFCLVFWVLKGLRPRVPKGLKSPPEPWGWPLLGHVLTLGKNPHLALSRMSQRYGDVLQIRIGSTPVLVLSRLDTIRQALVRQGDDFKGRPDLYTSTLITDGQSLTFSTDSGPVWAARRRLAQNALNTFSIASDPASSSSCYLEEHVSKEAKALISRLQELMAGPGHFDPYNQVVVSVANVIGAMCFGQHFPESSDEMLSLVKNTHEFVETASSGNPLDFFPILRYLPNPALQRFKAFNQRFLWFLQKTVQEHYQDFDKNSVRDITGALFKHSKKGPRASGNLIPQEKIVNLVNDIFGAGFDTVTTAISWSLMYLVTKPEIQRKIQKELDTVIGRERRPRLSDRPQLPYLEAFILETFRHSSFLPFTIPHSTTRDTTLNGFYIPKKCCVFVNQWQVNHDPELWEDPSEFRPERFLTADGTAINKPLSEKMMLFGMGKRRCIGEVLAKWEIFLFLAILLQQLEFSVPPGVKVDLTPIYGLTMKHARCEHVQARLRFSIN
The experiment in a line: CYP inhibition test, pooled human liver microsome, CYP1A2. The following applies: O-de-ethylation of 7-ethoxyresorufin. It counts as in vitro ADME. The method, boiled down: (§1)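 Pooled human liver microsomes (0.2 mg protein/mL) in 50 mmol/L Hepes with NADPH, 15 min at 37° C; test drug at 1, 5, 10, 20 μmol/L. Substrates: 0.5 μmol/L ethoxyresorufin (1A2, resorufin by fluorescence), 100 μmol/L tolbutamide (2C9), 5 μmol/L dextromethorphan (2D6), 1 μmol/L terfenadine (3A4), metabolites by LC/MS/MS. IC50 from remaining activity vs DMSO control, logistic model.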

The target in assay [3] is T2, CYP2C19 (Homo sapiens, UniProt P33261).
T2 construct: enzyme: pooled human liver microsome 0.2 mg protein/mL; from tissue; host or cells: pooled human liver microsome
The experiment in a line: CYP inhibition test, pooled human liver microsome, CYP2C19. It counts as in vitro ADME. The following applies: 4′-hydroxylation of mephenyloin. On the technique in general: Liver microsomes are a subcellular fraction often used to study metabolism.

The target of assay [4] is T3, CYP3A4 (Homo sapiens, UniProt P08684).
T3 construct: enzyme: pooled human liver microsome 0.2 mg protein/mL; from tissue; host or cells: pooled human liver microsome
Description: CYP inhibition test, pooled human liver microsome, CYP3A4. It counts as in vitro ADME. The settings on record: hydroxylation of terfenadine. In a few lines: as §1

The structures appear in SMILES notation. pIC50: −log10 of the molar value.

T3 sequence (P08684 whole entry): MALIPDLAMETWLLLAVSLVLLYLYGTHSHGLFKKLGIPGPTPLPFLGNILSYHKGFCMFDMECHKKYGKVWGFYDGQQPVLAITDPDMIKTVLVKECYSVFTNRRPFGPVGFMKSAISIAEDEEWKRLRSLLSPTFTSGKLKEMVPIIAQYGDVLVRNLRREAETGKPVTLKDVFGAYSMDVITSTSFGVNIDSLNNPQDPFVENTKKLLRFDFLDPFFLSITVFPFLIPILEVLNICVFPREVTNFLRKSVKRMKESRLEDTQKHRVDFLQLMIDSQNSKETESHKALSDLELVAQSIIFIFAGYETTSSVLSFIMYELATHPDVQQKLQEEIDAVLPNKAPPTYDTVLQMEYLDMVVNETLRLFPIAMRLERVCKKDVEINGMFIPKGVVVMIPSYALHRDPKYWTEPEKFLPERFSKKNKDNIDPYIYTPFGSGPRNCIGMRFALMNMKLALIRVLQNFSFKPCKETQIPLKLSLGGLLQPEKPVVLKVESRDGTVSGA
T2 sequence (P33261 whole entry): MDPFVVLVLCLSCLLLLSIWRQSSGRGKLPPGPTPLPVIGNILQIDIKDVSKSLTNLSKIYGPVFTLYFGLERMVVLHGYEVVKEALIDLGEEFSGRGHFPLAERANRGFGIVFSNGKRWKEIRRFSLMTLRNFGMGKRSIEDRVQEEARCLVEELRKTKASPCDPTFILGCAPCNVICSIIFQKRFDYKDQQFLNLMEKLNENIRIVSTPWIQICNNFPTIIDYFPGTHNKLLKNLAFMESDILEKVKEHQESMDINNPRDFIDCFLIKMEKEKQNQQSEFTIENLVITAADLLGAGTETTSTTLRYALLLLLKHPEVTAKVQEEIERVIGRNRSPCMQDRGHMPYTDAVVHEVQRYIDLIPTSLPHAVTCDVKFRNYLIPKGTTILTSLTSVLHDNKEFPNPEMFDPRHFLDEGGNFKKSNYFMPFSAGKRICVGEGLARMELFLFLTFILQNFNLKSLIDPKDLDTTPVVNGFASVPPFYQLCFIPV
Sequence of PI-3 kinase γ (P48736 whole entry): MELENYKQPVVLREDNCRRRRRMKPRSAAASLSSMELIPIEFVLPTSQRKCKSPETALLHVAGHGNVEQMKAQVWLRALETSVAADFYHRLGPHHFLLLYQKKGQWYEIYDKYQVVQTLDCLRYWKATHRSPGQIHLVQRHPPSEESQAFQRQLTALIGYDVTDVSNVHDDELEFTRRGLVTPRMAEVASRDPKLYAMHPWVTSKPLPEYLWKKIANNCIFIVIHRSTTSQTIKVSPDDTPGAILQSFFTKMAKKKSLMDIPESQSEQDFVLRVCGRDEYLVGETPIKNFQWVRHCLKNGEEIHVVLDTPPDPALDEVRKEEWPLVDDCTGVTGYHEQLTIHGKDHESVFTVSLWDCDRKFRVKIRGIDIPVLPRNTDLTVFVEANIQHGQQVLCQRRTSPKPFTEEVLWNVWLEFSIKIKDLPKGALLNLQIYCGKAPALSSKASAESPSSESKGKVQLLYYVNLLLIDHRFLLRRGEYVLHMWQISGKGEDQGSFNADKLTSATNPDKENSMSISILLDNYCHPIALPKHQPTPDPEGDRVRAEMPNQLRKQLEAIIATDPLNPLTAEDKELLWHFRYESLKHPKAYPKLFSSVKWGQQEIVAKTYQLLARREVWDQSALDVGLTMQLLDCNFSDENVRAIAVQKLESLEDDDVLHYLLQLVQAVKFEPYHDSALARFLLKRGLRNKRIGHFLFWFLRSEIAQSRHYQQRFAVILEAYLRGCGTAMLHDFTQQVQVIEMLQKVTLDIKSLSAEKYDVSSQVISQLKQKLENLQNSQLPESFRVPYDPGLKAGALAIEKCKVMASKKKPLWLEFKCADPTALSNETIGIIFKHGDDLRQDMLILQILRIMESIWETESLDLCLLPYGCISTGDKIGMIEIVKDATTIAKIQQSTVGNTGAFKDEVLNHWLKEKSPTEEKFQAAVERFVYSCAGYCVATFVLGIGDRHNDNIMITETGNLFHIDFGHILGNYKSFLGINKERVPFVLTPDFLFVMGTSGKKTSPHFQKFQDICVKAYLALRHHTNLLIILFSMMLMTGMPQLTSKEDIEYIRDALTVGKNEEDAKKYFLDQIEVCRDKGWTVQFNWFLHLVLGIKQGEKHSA

As to `CNC(=O)Nc1cc2n(n1)CCN2c1ccc(S(C)(=O)=O)cc1` [Compound I-89], the inhibition at 50 µM in assay [1] (PI3Kγ) is not below 95%. For the same compound, the negative-log IC50 (pIC50) in assay [2], in assay [3] and in assay [4] was less than 4.70 throughout.

In the case of `CNC(=O)Nc1nc2c(s1)CN(c1cc(Cl)nc(N)n1)CC2` [Compound I-118], the inhibition at 50 µM in assay [1] (PI3Kγ) is not below 95%. In addition, the pIC50 in assay [2], in assay [3] and in assay [4] was less than 4.70 throughout.

With `CNC(=O)Nc1nc2c(s1)CN(c1ccnc(OC)n1)CC2` [Compound I-142], the inhibition at 50 µM in assay [1] (PI3Kγ) is not below 95%. The pIC50 in assay [2], in assay [3] and in assay [4] was less than 4.70 in each case.

For the compound `CNC(=O)Nc1cc2n(n1)CCN2c1cc(C(=O)N2CCOCC2)cc(-c2ccc(N)nc2)c1` [Compound I-200], the inhibition at 50 µM in assay [1] (PI3Kγ) was not below 95%. Moreover, the pIC50 in assay [2], in assay [3] and in assay [4] was less than 4.70 in each case.

In the case of `COc1cc(N2CCc3nc(NC(=O)NCC(=O)O)sc3C2)nc(OC)n1` [Compound I-208], in assay [1] (PI3Kγ), the inhibition at 50 µM was determined as 93%. Also, the pIC50 in assay [2], in assay [3] and in assay [4] was less than 4.70 each time.

For `COc1cc(N2CCc3nc(NC(=O)NCc4cc(=O)[nH]o4)sc3C2)nc(OC)n1` [Compound I-279], the inhibition at 10 µM in assay [1] (PI3Kγ, compound at 10 μM) is not below 95%. Besides, the pIC50 in assay [2], in assay [3] and in assay [4] was less than 4.70 throughout.

With `CN1CCc2cc(N3CCn4nc(NC(=O)c5cccnc5)cc43)ccc2C1=O` [Compound I-347], the inhibition at 10 µM in assay [1] (compound at 10 μmol/L) came out at 91%. For the same compound, the pIC50 in assay [2], in assay [3] and in assay [4] was less than 4.70 each time.

In the case of `CN1CCc2cc(N3CCn4nc(NC(=O)c5ccco5)cc43)ccc2C1=O` [Compound I-358], the inhibition at 10 µM in assay [1] (compound at 10 μmol/L) was not below 95%. Moreover, the pIC50 in assay [2], in assay [3] and in assay [4] was less than 4.70 each time.
